This note sets out measurements from patent US20230183243A1, “HETEROARYL DERIVATIVES AND PHARMACEUTICAL COMPOSITION COMPRISING SAME AS ACTIVE INGREDIENT” (VORONOI INC., priority 2019, published 2023).

For one assay, the system named is MDA-MB-231 cells. The experiment in a line: Inhibition of proliferation of triple-negative breast cancer cells, CellTiter-Glo. The format is cell-based. The following applies: Homo sapiens, 120 h; MDA-MB-231, cultured for 5 days. A digest of the protocol:
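MDA-MB-231 cells pre-cultured 24 h (5% CO2, 37 °C), then exposed to compound for 5 days at 12 three-fold dilutions, final 10 μM to 0.05 nM. Viability read by CellTiter-Glo luminescence after 10 min at 37 °C; growth inhibition calculated relative to untreated solvent-control cells.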
Background: ATP-based viability assays read luminescence as a measure of living cells.

The target in another assay is T1, TTK (Homo sapiens, UniProt P33981).
T1 sequence (P33981 1-857): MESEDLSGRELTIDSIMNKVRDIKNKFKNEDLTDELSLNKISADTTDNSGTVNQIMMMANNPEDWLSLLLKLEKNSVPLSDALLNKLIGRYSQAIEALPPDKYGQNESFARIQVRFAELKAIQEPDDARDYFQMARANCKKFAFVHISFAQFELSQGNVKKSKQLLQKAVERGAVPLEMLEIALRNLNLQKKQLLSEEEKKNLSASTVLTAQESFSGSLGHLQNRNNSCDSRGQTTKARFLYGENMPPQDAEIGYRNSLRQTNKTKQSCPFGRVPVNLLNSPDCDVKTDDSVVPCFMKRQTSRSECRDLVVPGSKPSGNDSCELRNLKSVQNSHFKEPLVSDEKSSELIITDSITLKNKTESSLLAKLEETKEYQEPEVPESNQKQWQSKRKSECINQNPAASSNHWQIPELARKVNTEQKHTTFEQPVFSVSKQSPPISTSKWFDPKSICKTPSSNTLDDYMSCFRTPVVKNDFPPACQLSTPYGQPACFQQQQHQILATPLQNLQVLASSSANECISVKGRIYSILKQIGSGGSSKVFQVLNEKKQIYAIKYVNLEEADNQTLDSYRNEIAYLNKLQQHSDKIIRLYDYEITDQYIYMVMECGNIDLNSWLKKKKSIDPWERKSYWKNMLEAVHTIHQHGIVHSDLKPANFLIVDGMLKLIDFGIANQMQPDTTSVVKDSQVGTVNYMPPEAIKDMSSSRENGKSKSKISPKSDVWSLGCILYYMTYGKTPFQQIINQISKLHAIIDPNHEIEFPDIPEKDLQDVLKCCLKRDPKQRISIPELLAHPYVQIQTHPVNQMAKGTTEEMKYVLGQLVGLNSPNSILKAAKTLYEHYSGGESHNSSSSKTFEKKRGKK
The experiment in a line: TTK enzyme activity, ADP-Glo kinase assay. The format is biochemical. Set-up: purchased SignalChem T20-10G. The following applies: purified human TTK, ATP 10 μM, 25° C., 2 hours. Put shortly: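 Purified human TTK (25 ng) incubated with 10 μM ATP and substrate (0.2 μg) for 2 h at 25 °C in Tris-HCl pH 7.4, MgCl2, BSA, DTT buffer. ADP formation read by ADP-Glo; inhibition calculated against untreated solvent control.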

A further assay has as its system SHP-77. Put plainly: Inhibition of proliferation of small cell lung cancer cells, CellTiter-Glo. The format is cell-based. The following applies: Homo sapiens, SHP77, 120 h; SHP-77, cultured for 5 days. A digest of the protocol: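 SHP-77 cells at 2,000–3,000 cells/well, cultured 24 h at 37° C, 5% CO2, then given 12 threefold compound dilutions, final 10 μM to 0.05 nM, for 5 days. Viability by CellTiter-Glo luminescence relative to solvent control. GI50 from concentration–response.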

For orientation: GI50 means the concentration that inhibits growth by half. A low value points to greater sensitivity of the cells. A word on the IC50: it is the concentration that inhibits the measured activity by half.

On to `COc1cc(-c2cnn(C)c2)ccc1Nc1nc(NC2CCOC(C)(C)C2)c2c(C#N)c[nH]c2n1` (stereo not drawn) [Example 144, 4-((2,2-dimethyltetrahydro-2H-pyran-4-yl)amino)-2-((2-methoxy-4-(1-methyl-1H-pyrazol-4-yl)phenyl)amino)-7H-pyrrolo[2,3-d] pyrimidine-5-carbonitrile], for which the GI50 in the assay on MDA-MB-231 cells and in the assay on SHP-77 was < 0.1 µM throughout. Moreover, the IC50 at TTK was < 0.05 µM.

For the compound `COc1cc(Nc2nc(NC3CCCC3)c3c(C#N)c[nH]c3n2)ccc1-c1ccnn1C` [Example 120, 4-(cyclopentylamino)-2-((3-methoxy-4-(1-methyl-1H-pyrazol-5-yl)phenyl)amino)-7H-pyrrolo[2,3-d] pyrimidine-5-carbonitrile], the GI50 with MDA-MB-231 cells and with SHP-77 was 0.1 to 1 µM each time. Moreover, at TTK, the IC50 is 0.05 to 0.2 µM.

Regarding `COC[C@@H](C)Nc1nc(Nc2ccc(-n3ccnc3C)cc2OC)nc2[nH]cc(C#N)c12` [Example 167, (R)-2-((2-methoxy-4-(2-methyl-1H-imidazol-1-yl)phenyl)amino)-4-((1-methoxypropan-2-yl)amino)-7H-pyrrolo[2,3-d] pyrimidine-5-carbonitrile], the concentration for 50% growth inhibition (GI50) in the assay on MDA-MB-231 cells and with SHP-77 was < 0.1 µM each time. Further, the IC50 at TTK is < 0.05 µM.

For the compound `COc1cc(-n2ccnc2C)ccc1Nc1nc(NC2CCOCC2)c2c(C#N)c[nH]c2n1` [Example 93, 2-((2-methoxy-4-(2-methyl-1H-imidazol-1-yl)phenyl)amino)-4-((tetrahydro-2H-pyran-4-yl)amino)-7H-pyrrolo[2,3-d] pyrimidine-5-carbonitrile], the concentration for 50% growth inhibition (GI50) in the assay with MDA-MB-231 cells and with SHP-77 was < 0.1 µM each time. The half-maximal inhibitory concentration (IC50) on TTK is < 0.05 µM.

Consider `COc1cc(-c2cnn(C)c2)ccc1Nc1nc(NC2CCOCC2)c2c(C#N)c[nH]c2n1` [Example 92, 2-((2-methoxy-4-(1-methyl-1H-pyrazol-4-yl)phenyl)amino)-4-((tetrahydro-2H-pyran-4-yl)amino)-7H-pyrrolo[2,3-d] pyrimidine-5-carbonitrile], for which the GI50 in the assay on MDA-MB-231 cells and in the assay on SHP-77 was < 0.1 µM throughout. Besides, the IC50 on TTK is < 0.05 µM.

As for `COc1cc(N2CCCS2(=O)=O)ccc1Nc1nc(NC2CCCC2)c2c(C(F)(F)F)c[nH]c2n1` [Example 176, 2-(4-((4-(cyclopentylamino)-5-(trifluoromethyl)-7H-pyrrolo[2,3-d]pyrimidin-2-yl)amino)-3-methoxyphenyl) isothiazolidine 1,1-dioxide], the GI50 in the assay on MDA-MB-231 cells and with SHP-77 was 0.1 to 1 µM throughout. Moreover, the 50% inhibitory concentration (IC50) against TTK is 0.05 to 0.2 µM.

As to `COc1cc(-c2cnn(C)c2)c(F)cc1Nc1nc(NC2CCCC2)c2c(C#N)c[nH]c2n1` [Example 125, 4-(cyclopentylamino)-2-((5-fluoro-2-methoxy-4-(1-methyl-1H-pyrazol-4-yl)phenyl)amino)-7H-pyrrolo[2,3-d] pyrimidine-5-carbonitrile], the GI50 with MDA-MB-231 cells was < 0.1 µM; with SHP-77, 0.1 to 1 µM. The IC50 against TTK is < 0.05 µM.

Take `Cn1nccc1-c1ccc(Nc2nc(NCC(C)(C)C)c3c(C#N)c[nH]c3n2)c2c1OCCO2` [Example 60, 2-((8-(1-methyl-1H-pyrazol-5-yl)-2,3-dihydrobenzo[b][1,4]dioxin-5-yl)amino)-4-(neopentylamino)-7H-pyrrolo[2,3-d] pyrimidine-5-carbonitrile]: the GI50 in the assay on MDA-MB-231 cells and in the assay with SHP-77 was < 0.1 µM throughout. On TTK, this compound displayed a 50% inhibitory concentration (IC50) of 0.05 to 0.2 µM.

As for `Cn1nccc1-c1ccc(Nc2nc(C3=CCCCC3)c3c(C#N)c[nH]c3n2)c2c1OCCO2` [Example 130, 4-(cyclohex-1-en-1-yl)-2-((8-(1-methyl-1H-pyrazol-5-yl)-2,3-dihydrobenzo[b][1,4]dioxin-5-yl)amino)-7H-pyrrolo[2,3-d] pyrimidine-5-carbonitrile], the GI50 in the assay on MDA-MB-231 cells and in the assay on SHP-77 was 0.1 to 1 µM each time. Also, the IC50 against TTK lay in the range of 0.05 to 0.2 µM.

Turning to `COc1cc(N2CCCCS2(=O)=O)ccc1Nc1nc(NC2CCCC2)c2c(C(F)(F)F)c[nH]c2n1` [Example 177, 2-(4-((4-(cyclopentylamino)-5-(trifluoromethyl)-7H-pyrrolo[2,3-d]pyrimidin-2-yl)amino)-3-methoxyphenyl)-1,2-thiazinane 1,1-dioxide], the GI50 in the assay with MDA-MB-231 cells and with SHP-77 was 0.1 to 1 µM in each case. This compound yielded an IC50 against TTK of 0.05 to 0.2 µM.

`COc1cc(-c2ccnn2C)ccc1Nc1nc(NC2CCOCC2)c2c(C(F)(F)F)c[nH]c2n1` [Example 106, N^2-(2-methoxy-4-(1-methyl-1H-pyrazol-5-yl)phenyl)-N^4-(tetrahydro-2H-pyran-4-yl)-5-(trifluoromethy1)-7H-pyrrolo[2,3-d] pyrimidine-2,4-diamine]: the GI50 in the assay on MDA-MB-231 cells and with SHP-77 was < 0.1 µM in each case. This compound also returned an IC50 against TTK of 0.05 to 0.2 µM.

On to `COC[C@@H](C)Nc1nc(Nc2ccc(-c3cnn(C)c3)c3c2OCCO3)nc2[nH]cc(C#N)c12` [Example 169], for which the concentration for 50% growth inhibition (GI50) in the assay on MDA-MB-231 cells and with SHP-77 was < 0.1 µM throughout. The IC50 on TTK is < 0.05 µM.

Take `COc1cc(N2CCCS2(=O)=O)ccc1Nc1nc(NC2CCOCC2)c2c(C(F)(F)F)c[nH]c2n1` [Example 174, 2-(3-methoxy-4-((4-((tetrahydro-2H-pyran-4-yl)amino)-5-(trifluoromethyl)-7H-pyrrolo[2,3-d]pyrimidin-2-yl)amino)phenyl)isot hiazolidine 1,1-dioxide]: the GI50 in the assay with MDA-MB-231 cells and with SHP-77 was < 0.1 µM each time. The IC50 against TTK is < 0.05 µM.

On to `COc1cc(N2CCCCS2(=O)=O)ccc1Nc1nc(NC2CCCC2)c2c(C#N)c[nH]c2n1` [Example 155, 4-(cyclopentylamino)-2-((4-(1,1-dioxido-1,2-thiazinan-2-yl)-2-methoxyphenyl)amino)-7H-pyrrolo[2,3-d] pyrimidine-5-carbonitrile], for which the GI50 in the assay with MDA-MB-231 cells and in the assay on SHP-77 was < 0.1 µM in each case. On TTK, the IC50 was < 0.05 µM.

Take `COc1cc(-c2nncn2C)ccc1Nc1nc(NC2CCCC(F)(F)C2)c2c(C#N)c[nH]c2n1` (stereo not drawn) [Example 154, 4-((3,3-difluorocyclohexyl)amino)-2-((2-methoxy-4-(4-methyl-4H-1,2,4-triazol-3-yl)phenyl)amino)-7H-pyrrolo[2,3-d] pyrimidine-5-carbonitrile]: the 50% growth inhibitory concentration (GI50) in the assay on MDA-MB-231 cells and in the assay on SHP-77 was < 0.1 µM throughout. Besides, the IC50 at TTK is < 0.05 µM.
